Results from patent publication US11459339B2, “Biaryl derivative, preparation method thereof and pharmaceutical application thereof” (Abbisko Therapeutics Co., Ltd., priority 2018, dated 2022).
Read-outs that look alike come from different tables or passages of the source.

Experiments:
[1] = molecular target: interaction between PD-1 and PD-L1 (Homo sapiens (Human), UniProt Q9NZQ7); assay: PD1-PDL1 HTRF binding activity test (Cisbio PD-1/PD-L1 binding assay kit); conditions: read-out: PD1-PDL1 HTRF Binding Activity IC50
Sequence of interaction between PD-1 and PD-L1 (Q9NZQ7 19-238): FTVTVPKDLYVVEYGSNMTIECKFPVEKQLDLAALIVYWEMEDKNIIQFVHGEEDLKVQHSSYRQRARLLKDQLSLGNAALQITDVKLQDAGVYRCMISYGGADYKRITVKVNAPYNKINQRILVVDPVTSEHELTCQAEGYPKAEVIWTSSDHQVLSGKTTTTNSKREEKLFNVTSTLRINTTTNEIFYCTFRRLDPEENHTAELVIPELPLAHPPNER

[2] = molecular target: interaction between PD-1 and PD-L1 expressed on cell surfaces (Homo sapiens (Human), UniProt Q9NZQ7); assay: Jurkat reporter gene cellular assay (Jurkat/NF-κB-luc/PD1 cells cocultured with Raji-PD-L1 cells, OKT-3 stimulation); assay type: cell-based; conditions: NF-κB-luc reporter activation fold, 6 hrs; read-out: Cell Activity EC50
Sequence of interaction between PD-1 and PD-L1 expressed on cell surfaces (Q9NZQ7 19-290): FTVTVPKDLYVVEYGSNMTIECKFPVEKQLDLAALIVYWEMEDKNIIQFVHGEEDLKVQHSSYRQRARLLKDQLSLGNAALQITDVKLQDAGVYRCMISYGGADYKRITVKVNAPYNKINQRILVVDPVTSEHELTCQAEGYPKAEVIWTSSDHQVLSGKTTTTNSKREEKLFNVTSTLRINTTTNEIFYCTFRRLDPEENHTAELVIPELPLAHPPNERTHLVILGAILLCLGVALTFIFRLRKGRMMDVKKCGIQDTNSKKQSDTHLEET
Outline: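 Jurkat cells stably expressing human PD-1 and NF-κB-luciferase were cocultured with Raji cells stably expressing human PD-L1 under OKT-3 stimulation, with compound present. Luminescence was read after 6 h.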

[3] = Pharmacokinetic assay in mice, per oral administration; assay type: in vivo; conditions: ICR mice
Excerpt: C. Pharmacokinetic Assay in Mice
The purpose of this study was to study the pharmacokinetic behaviors of some compounds of the present invention, and administration routes were: per oral administration (PO) to ICR mice:
The compounds used in this test came from the compounds of the specific examples of the present invention.
ICR mice male N=3 original source: Shanghai Sippr-BK Laboratory Animal Co. Ltd.
2.3 Preparation and Administration of Medicaments
The compounds were weighed, and dissolved in solvent of 0.5% SDS+0.5% CMCNa. The mixture solutions were mixed well by shaking and ultrasonic treatment to obtain colorless clear solutions. The solutions were orally administered to nine mice after an overnight fast. The dosage of administration was 10 mg/kg (or 30 mg/kg).
With about 90 μL/time point, blood was drawn from the submaxillary vein, and heparin sodium was added for anticoagulation. The blood samples were placed onto the ice, and were centrifuged (centrifugation conditions: 8000 r/min, 6 min, 2-8° C.) within 1 hr to obtain plasmas. The time points for blood sampling were at 0 hr, 0.25 hr, 0.5 hr, 1 hr, 2 hrs, 4 hrs, 6 hrs, 8 hrs and 24 hrs after administration. The samples were stored in a refrigerator at −20° C.
40 μL of plasma sample was added to 160 μL of cold acetonitrile containing an internal standard, and the mixture solution was vortexed for 3 min and centrifuged at 11,000 r/min for 5 min. 100 μL of supernate was taken and added to 100 μL of water, and 5 μL of the sample was taken and analyzed by LC/MS/MS. Only the original compounds were analyzed for examples 1, 3, 5, 8, 46 and 141 (for results, see table 2); and both the original compounds and possible products of ester hydrolysis, namely example 2, 27, 65 and 105, were analyzed for examples 4, 26, 64 and 104 (for results, see table 3).

[4] = product of ester hydrolysis analyzed after PO 30 mg/kg of the ester (2 after 4, 27 after 26, 65 after 64)
[5] = male, mouse, plasma, PO 10 mg/kg, original compound analyzed
[6] = male, mouse, plasma, PO 30 mg/kg, original compound (ester) analyzed

| Compound | IC50 [1] [nM] | EC50 [2] [nM] | Cmax [3, 4] | ester hydrolysis in the bodies of the mice after oral administration [3] | also measured |
| --- | --- | --- | --- | --- | --- |
| COc1cc(C(=O)Nc2cccc(-c3cccc(NC(=O)c4cc(OC)c(CN5CC(C)(O)C5)cn4)c3C)c2C)ncc1CN1CC(C)(O)C1 [Example 46, N,N'-(2,2′-dimethyl-[1,1′-biphenyl]-3,3′-diyl)bis(5-((3-hydroxy-3-methylazetidin-1-yl)methyl)-4-methoxypicolinamide)] | 0.25 | 64 |  |  | MRT [3, 5]: 15.5 h; Tmax [3, 5]: 4 h; half-life [3, 5]: 10.7 h; AUC(0-t) ([3]; male, mouse, plasma, PO 10 mg/kg, original compound analyzed, class symbol): 500 to 2000 ng·h/mL; Cmax ([3]; male, mouse, PO 10 mg/kg, plasma, original compound analyzed, class symbol, read-out: Cmax): ≤ 100 ng/mL |
| COc1cc(C(=O)Nc2cccc(-c3cccc(NC(=O)c4cc(OC)c(CN5CCCC[C@H]5C(=O)O)cn4)c3C)c2C)ncc1CN1CCCC[C@H]1C(=O)O [Example 65, (2S,2S)-1,1′-(((((2,2′-dimethyl-[1,1′-bipheny]-3,3′-diyl)bis(azanediyl))bis(carbonyl))bis(4-methoxypyridine-6,3-diyl))bis(methylene))bis(piperidine-2-carboxylic acid)] | 0.12 | 132 | BQL |  |  |
| COC(=O)[C@@H](CO)NCc1cnc(C(=O)Nc2cccc(-c3cccc(NC(=O)c4cc(C5CC5)c(CN[C@H](CO)C(=O)OC)cn4)c3C)c2C)cc1C1CC1 [Example 104] | 1.57 | 296 |  | rapidly became corresponding acids | Cmax ([3]; Table 3, PO 10 mpk, original compound (ester 104) analyzed): BQL |

Now from value to compound, other results behind:

| IC50 [1] [nM] | EC50 [2] [nM] | Cmax [3, 4] | Compound | ester hydrolysis in the bodies of the mice after oral administration [3] | also measured |
| --- | --- | --- | --- | --- | --- |
| 0.28 | 128 | BQL | Cc1cc(C(=O)Nc2cccc(-c3cccc(NC(=O)c4cc(C)c(CN5CCCC[C@H]5C(=O)O)cn4)c3C)c2C)ncc1CN1CCCC[C@H]1C(=O)O [Example 27, (2S,2′S)-1,1′-(((((2,2′-dimethyl-[1,1′-biphenyl]-3,3′-diyl)bis(azanediyl))bis(carbonyl))bis(4-methylpyridine-6,3-diyl))bis (methylene))bis(piperidine-2-carboxylic acid)] |  |  |
| 10.7 | 1860 |  | COC(=O)[C@@H]1CCCCN1Cc1cnc(C(=O)Nc2cccc(-c3cccc(NC(=O)c4cc(OC)c(CN5CCCC[C@H]5C(=O)OC)cn4)c3C)c2C)cc1OC [Example 64] | no product of ester hydrolysis was detected | MRT [3, 6]: 4.6 h; Tmax [3, 6]: 2 h; half-life [3, 6]: 3.7 h; AUC(0-t) ([3]; male, mouse, plasma, PO 30 mg/kg, original compound (ester) analyzed, class symbol): > 2000 ng·h/mL; Cmax ([3]; male, mouse, plasma, PO 30 mg/kg, original compound (ester) analyzed, class symbol, read-out: Cmax): > 500 ng/mL |
| 0.75 | 74 |  | COc1cc(C(=O)Nc2cccc(-c3cccc(NC(=O)c4cc(OC)c(CNCCO)cn4)c3Cl)c2C)ncc1CNCCO [Example 141, N,N′-(2-chloro-2′-methyl-[1,1′-biphenyl]-3,3′-diyl)bis(5-(((2-hydroxyethyl)amino)methyl)-4-methoxypicolinamide)] |  | Cmax ([3]; PO 10 mg/kg, plasma, original compound analyzed): BQL |
